According to US6933285B2, “Flavin N-oxides: new anti-cancer agents and pathogen eradication agents” (The Ohio State University, priority 2002, dated 2005):

Legend:
bacteriophage Φ6 = settings: platelet concentrates, normal oxygen tension, UVA; cited from earlier work
[1] = system: non-enveloped parvoviruses; settings: cited from earlier work
Water solubility = format: physicochemical
From the text: Riboflavin N-oxide, is one example of a flavin N-oxide, it is water soluble and electrically neutral. Additionally, upon fragmentation of the neutral radical, riboflavin N-oxide forms the hydroxyl radical, which damages the nucleic acid, and riboflavin, vitamin B2, which is generally regarded as safe in humans.
In the methods of the present invention, the flavin N-oxides are introduced to the composition containing the blood products. It is preferred that the flavin N-oxides of the present invention are water-soluble. By “water soluble” we mean that it is preferred that the solubility of the flavin N-oxides is at least 100 micromolar in water. An exemplary flavin N-oxide for the methods of the present invention is riboflavin N-oxide. Once introduced to the blood product composition, riboflavin N-oxide, which is electrically neutral, may passively transport into cells, where it is enzymatically activated to form a radical anion. Additionally, riboflavin N-oxide may be activated by electromagnetic radiation. When electromagnetic radiation is used as the activator, the wavelength of light is preferably in the visible region.

[2] = system: PA-Lymphoblastoid Cell Line; assay: PA-Lymphoblastoid cell viability under oxygen deprivation in the presence of sensitizers; format: cell-based; settings: PA-Lymphoblastoid cells; for cell count at Time (hour) 0 / cell count at Time (hour) 4 / cell count at Time (hour) 20: solutions and cells bubbled with nitrogen 15 minutes; for cell count at Time (hour) 0: time 0 hour; for cell count at Time (hour) 4: time 4 hour; for cell count at Time (hour) 20: time 20 hour
Description: PA-Lymphoblastoid Cell Line: Study of the effect of oxygen deprivation in the presence of 3 sensitizers Six solutions were prepared having the solutions and the cells from each of the 6 sets were “bubbled” with nitrogen separately for 15 minutes before being mixed.
The results of this study are shown graphically in FIG. 5.

SMILES | inactivation of the virus bacteriophage Φ6 (bacteriophage Φ6) | potency towards the non-enveloped parvoviruses [1] | water solubility (Water solubility) | hypoxic toxicity ([2]; oxygen deprivation) | cell count at Time (hour) 0 [2] [million cells/mL] | cell count at Time (hour) 4 [2] [million cells/mL] | cell count at Time (hour) 20 [2] [million cells/mL]
COc1c2occc2cc2ccc(=O)oc12 [8-MOP] | completely inactivate |  |  |  |  |  | 
Cc1oc2c(C)c3oc(=O)cc(C)c3cc2c1CN [AMT] | completely inactivate | limited potency |  |  |  |  | 
Cc1cc2c(cc1C)[n+]([O-])c1c(=O)[nH]c(=O)nc-1n2CC(O)C(O)C(O)CO (centres unmarked) [RBO, riboflavin N-oxide] |  |  | water soluble | high hypoxic toxicity | 0.45 | 0.46 | 0.06
Cc1cc2nc3c(=O)[nH]c(=O)nc-3n(C[C@H](O)[C@H](O)[C@H](O)CO)c2cc1C [Riboflavin (RB), Riboflavin] |  |  |  |  | 1 | 0.9 | 0.63
Nc1n[n+]([O-])c2ccccc2[n+]1[O-] [Tirapazamine (TPZ), Tirapazamine] |  |  |  |  | 0.4 | 0.4 | 0.36
